Laboratory results from ChEMBL document CHEMBL1201861, “Genomics of Drug Sensitity in Cancer screening data, Wellcome Trust Sanger Institute”.
Structures can show the parent of a compound that is named as a salt.

Legend:
Test in all cases: cells
SHP77 = assay type: functional, cell-based, Homo sapiens, SHP-77; details: Homo sapiens, SHP77;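 also: growth inhibition of human SHP-77 cells measured by a cell viability assay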
Description: SANGER: Inhibition of human SHP-77 cell growth in a cell viability assay.

A498 = assay type: functional, cell-based, Homo sapiens; details: Homo sapiens, A498;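 also: growth inhibition of human A498 cells, read out with a cell viability assay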
Description: SANGER: Inhibition of human A498 cell growth in a cell viability assay.

NEC8 = assay type: functional, cell-based, Homo sapiens; details: Homo sapiens, NEC8;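 also: growth inhibition of human NEC8 cells, read out by a cell viability assay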
Description: SANGER: Inhibition of human NEC8 cell growth in a cell viability assay.

OCUB-M = assay type: functional, cell-based, Homo sapiens; details: Homo sapiens, OCUB-M;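 also: growth inhibition of the cancer cell line, read out through a cell viability assay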
Description: SANGER: Inhibition of human OCUB-M cell growth in a cell viability assay.

SW982 = assay type: functional, cell-based, Homo sapiens; details: Homo sapiens, SW982;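 also: growth inhibition of SW982 cells, read out with a cell viability assay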
Description: SANGER: Inhibition of human SW982 cell growth in a cell viability assay.

GAK = assay type: functional, cell-based, Homo sapiens; details: Homo sapiens, GAK;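 also: cell growth inhibition read out by a cell viability assay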
Description: SANGER: Inhibition of human GAK cell growth in a cell viability assay.

MZ7-mel = assay type: functional, cell-based, Homo sapiens; details: Homo sapiens, MZ7-mel;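 also: growth inhibition of human MZ7-mel cells, measured by a cell viability assay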
Description: SANGER: Inhibition of human MZ7-mel cell growth in a cell viability assay.

LC-2-ad = assay type: functional, cell-based, Homo sapiens; details: Homo sapiens, LC-2-ad;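 also: growth inhibition of human LC-2-ad cells, read out with a cell viability assay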
Description: SANGER: Inhibition of human LC-2-ad cell growth in a cell viability assay.

KE-37 = assay type: functional, cell-based, Homo sapiens; details: Homo sapiens, KE-37;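 also: growth inhibition of KE-37 cells, read out with a cell viability assay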
Description: SANGER: Inhibition of human KE-37 cell growth in a cell viability assay.

EM-2 = assay type: functional, cell-based, Homo sapiens; details: Homo sapiens, EM-2;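 also: growth inhibition of EM-2 cells, read out with a cell viability assay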
Description: SANGER: Inhibition of human EM-2 cell growth in a cell viability assay.

HEL = assay type: functional, cell-based, Homo sapiens; details: Homo sapiens, HEL;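 also: growth inhibition of HEL cells, read out with a cell viability assay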
Description: SANGER: Inhibition of human HEL cell growth in a cell viability assay.

COLO-668 = assay type: functional, cell-based, Homo sapiens; details: Homo sapiens, COLO-668
Description: SANGER: Inhibition of human COLO-668 cell growth in a cell viability assay.

RPMI-8226 = assay type: functional, cell-based, Homo sapiens; details: Homo sapiens, RPMI-8226
Description: SANGER: Inhibition of human RPMI-8226 cell growth in a cell viability assay.

A704 = assay type: functional, cell-based, Homo sapiens; details: Homo sapiens, A704;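 also: growth inhibition of human A704 cells, read out with a cell viability assay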
Description: SANGER: Inhibition of human A704 cell growth in a cell viability assay.

NCI-H209 = assay type: functional, cell-based, Homo sapiens; details: Homo sapiens, NCI-H209;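 also: growth inhibition of human NCI-H209 cells, measured by a cell viability assay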
Description: SANGER: Inhibition of human NCI-H209 cell growth in a cell viability assay.

EW-3 = assay type: functional, cell-based, Homo sapiens; details: Homo sapiens, EW-3;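 also: cell viability assay read-out, IC50 reflects inhibition of growth of the EW-3 cells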
Description: SANGER: Inhibition of human EW-3 cell growth in a cell viability assay.

LS-411N = assay type: functional, cell-based, Homo sapiens; details: Homo sapiens, LS-411N
KNS-81-FD = assay type: functional, cell-based, Homo sapiens; details: Homo sapiens, KNS-81-FD;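 also: growth inhibition of KNS-81-FD cells, read out with a cell viability assay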
Description: SANGER: Inhibition of human KNS-81-FD cell growth in a cell viability assay.

SW684 = assay type: functional, cell-based, Homo sapiens; details: Homo sapiens, SW684;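 also: growth inhibition of human SW684 cells, measured by a cell viability assay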
Description: SANGER: Inhibition of human SW684 cell growth in a cell viability assay.

GT3TKB = assay type: functional, cell-based, Homo sapiens; details: Homo sapiens, GT3TKB;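 also: growth inhibition of the cell line, read out with a cell viability assay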
Description: SANGER: Inhibition of human GT3TKB cell growth in a cell viability assay.

ES1 = assay type: functional, cell-based, Homo sapiens; details: Homo sapiens, ES1;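 also: growth inhibition of ES1 cells, read out with a cell viability assay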
Description: SANGER: Inhibition of human ES1 cell growth in a cell viability assay.

NB10 = assay type: functional, cell-based, Homo sapiens; details: Homo sapiens, NB10;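 also: growth inhibition of NB10 cells, read out by a cell viability assay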
Description: SANGER: Inhibition of human NB10 cell growth in a cell viability assay.

TK-10 = assay type: functional, cell-based, Homo sapiens; details: Homo sapiens, TK-10;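 also: growth inhibition of TK-10 cells, read out in a cell viability assay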
Description: SANGER: Inhibition of human TK10 cell growth in a cell viability assay.

SH-4 = assay type: functional, cell-based, Homo sapiens; details: Homo sapiens, SH-4;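 also: growth inhibition of SH-4 cells, read out with a cell viability assay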
Description: SANGER: Inhibition of human SH-4 cell growth in a cell viability assay.

ES8 = assay type: functional, cell-based, Homo sapiens; details: Homo sapiens, ES8;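 also: growth inhibition of human ES8 cells, read out with a cell viability assay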
Description: SANGER: Inhibition of human ES8 cell growth in a cell viability assay.

KINGS-1 = assay type: functional, cell-based, Homo sapiens; details: Homo sapiens, KINGS-1;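 also: cell viability assay measuring suppression of KINGS-1 cell growth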
Description: SANGER: Inhibition of human KINGS-1 cell growth in a cell viability assay.

BB30-HNC = assay type: functional, cell-based, Homo sapiens; details: Homo sapiens, BB30-HNC;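 also: growth inhibition of the cultured cell line, read out by a cell viability assay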
Description: SANGER: Inhibition of human BB30-HNC cell growth in a cell viability assay.

SW 954 = assay type: functional, cell-based, Homo sapiens; details: Homo sapiens, SW 954;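 also: growth inhibition of SW954 human cancer cells, read out as cell viability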
Description: SANGER: Inhibition of human SW954 cell growth in a cell viability assay.

SF-268 = assay type: functional, cell-based, Homo sapiens; details: Homo sapiens, SF-268;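 also: growth inhibition of SF-268 cells determined with a cell viability assay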
Description: SANGER: Inhibition of human SF268 cell growth in a cell viability assay.

KMOE-2 = assay type: functional, cell-based, Homo sapiens; details: Homo sapiens, KMOE-2;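 also: growth inhibition of human KMOE-2 cells, read out with a cell viability assay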
Description: SANGER: Inhibition of human KMOE-2 cell growth in a cell viability assay.

LB996-RCC = assay type: functional, cell-based, Homo sapiens; details: Homo sapiens, LB996-RCC
Description: SANGER: Inhibition of human LB996-RCC cell growth in a cell viability assay.

HCC 2998 = assay type: functional, cell-based, Homo sapiens; details: Homo sapiens, HCC 2998;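 also: growth inhibition of human HCC2998 cells, measured with a cell viability read-out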
Description: SANGER: Inhibition of human HCC2998 cell growth in a cell viability assay.

D-502MG = assay type: functional, cell-based, Homo sapiens; details: Homo sapiens, D-502MG
Description: SANGER: Inhibition of human D-502MG cell growth in a cell viability assay.

BT-474 = assay type: functional, cell-based, Homo sapiens; details: Homo sapiens, BT-474
Description: SANGER: Inhibition of human BT-474 cell growth in a cell viability assay.

U-87 MG = assay type: functional, cell-based, Homo sapiens, U-87MG ATCC; details: Homo sapiens, U-87 MG;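 also: growth inhibition of the cells measured with a viability assay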
Description: SANGER: Inhibition of human U-87-MG cell growth in a cell viability assay.

KM-H2 = assay type: functional, cell-based, Homo sapiens; details: Homo sapiens, KM-H2;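 also: growth inhibition of KM-H2 cells, read out by a cell viability assay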
Description: SANGER: Inhibition of human KM-H2 cell growth in a cell viability assay.

no-11 = assay type: functional, cell-based, Homo sapiens; details: Homo sapiens;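 also: growth inhibition of human NO-11 cells, read out with a cell viability assay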
Description: SANGER: Inhibition of human no-11 cell growth in a cell viability assay.

HOP-62 = assay type: functional, cell-based, Homo sapiens; details: Homo sapiens, HOP-62;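 also: cell growth inhibition determined with a viability assay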
Description: SANGER: Inhibition of human HOP-62 cell growth in a cell viability assay.

CGTH-W-1 = assay type: functional, cell-based, Homo sapiens; details: Homo sapiens, CGTH-W-1;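 also: growth inhibition of human CGTH-W-1 cells measured by cell viability assay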
Description: SANGER: Inhibition of human CGTH-W-1 cell growth in a cell viability assay.

ALL-PO = assay type: functional, cell-based, Homo sapiens; details: Homo sapiens, ALL-PO;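 also: growth inhibition of ALL-PO cells, read out by a cell viability assay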
Description: SANGER: Inhibition of human ALL-PO cell growth in a cell viability assay.

MPP-89 = assay type: functional, cell-based, Homo sapiens; details: Homo sapiens, MPP-89;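 also: growth inhibition of human MPP-89 cells, read out with a cell viability assay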
Description: SANGER: Inhibition of human MPP-89 cell growth in a cell viability assay.

NCI-H226 = assay type: functional, cell-based, Homo sapiens; details: Homo sapiens, NCI-H226;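 also: cell viability read-out used to gauge growth inhibition of the cells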
Description: SANGER: Inhibition of human NCI-H226 cell growth in a cell viability assay.

EW-16 = assay type: functional, cell-based, Homo sapiens; details: Homo sapiens, EW-16;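 also: growth inhibition of human EW-16 cells, read out as cell viability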
Description: SANGER: Inhibition of human EW-16 cell growth in a cell viability assay.

PSN1 = assay type: functional, cell-based, Homo sapiens; details: Homo sapiens, PSN1;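 also: suppression of growth of human PSN1 cells, read out by a cell viability assay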
Description: SANGER: Inhibition of human PSN1 cell growth in a cell viability assay.

MFH-ino = assay type: functional, cell-based, Homo sapiens; details: Homo sapiens, MFH-ino;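 also: growth inhibition of human MFH-ino cells, read out by a cell viability assay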
Description: SANGER: Inhibition of human MFH-ino cell growth in a cell viability assay.

SK-MEL-2 = assay type: functional, cell-based, Homo sapiens; details: Homo sapiens, SK-MEL-2;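 also: growth inhibition of human SK-MEL-2 cells measured with a cell viability assay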
Description: SANGER: Inhibition of human SK-MEL-2 cell growth in a cell viability assay.

ACN = assay type: functional, cell-based, Homo sapiens; details: Homo sapiens, ACN;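 also: growth inhibition of the human ACN cell line, read out via cell viability testing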
Description: SANGER: Inhibition of human ACN cell growth in a cell viability assay.

MZ2-MEL = assay type: functional, cell-based, Homo sapiens; details: Homo sapiens, MZ2-MEL;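 also: growth inhibition of MZ2-MEL cells read out with a cell viability assay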
Description: SANGER: Inhibition of human MZ2-MEL cell growth in a cell viability assay.

IST-MEL1 = assay type: functional, cell-based, Homo sapiens; details: Homo sapiens, IST-MEL1;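 also: growth inhibition of the cell line, read out with a cell viability assay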
Description: SANGER: Inhibition of human IST-MEL1 cell growth in a cell viability assay.

SMILES: C=C(c1ccc(C(=O)O)cc1)c1cc2c(cc1C)C(C)(C)CCC2(C)C [BEXAROTENE]
- IC50 (SHP77): > 8000 nM
- IC50 (A498): > 8000 nM
- IC50 (NEC8): > 8000 nM
- IC50 (OCUB-M): 1020 nM
- IC50 (SW982): > 8000 nM
- IC50 (GAK): > 8000 nM
- IC50 (MZ7-mel): > 8000 nM
- IC50 (LC-2-ad): > 8000 nM
- IC50 (KE-37): > 8000 nM
- IC50 (EM-2): > 8000 nM
- IC50 (HEL): > 8000 nM
- IC50 (COLO-668): > 8000 nM
- IC50 (RPMI-8226): > 8000 nM
- IC50 (A704): > 8000 nM
- IC50 (NCI-H209): > 8000 nM
- IC50 (EW-3): > 8000 nM
- IC50 (LS-411N): > 8000 nM
- IC50 (KNS-81-FD): > 8000 nM
- IC50 (SW684): > 8000 nM
- IC50 (GT3TKB): > 8000 nM
- IC50 (ES1): > 8000 nM
- IC50 (NB10): > 8000 nM
- IC50 (TK-10): > 8000 nM
- IC50 (SH-4): 5310 nM
- IC50 (ES8): > 8000 nM
- IC50 (KINGS-1): > 8000 nM
- IC50 (BB30-HNC): > 8000 nM
- IC50 (SW 954): > 8000 nM
- IC50 (SF-268): > 8000 nM
- IC50 (KMOE-2): > 8000 nM
- IC50 (LB996-RCC): > 8000 nM
- IC50 (HCC 2998): > 8000 nM
- IC50 (D-502MG): > 8000 nM
- IC50 (BT-474): > 8000 nM
- IC50 (U-87 MG): > 8000 nM
- IC50 (KM-H2): > 8000 nM
- IC50 (no-11): > 8000 nM
- IC50 (HOP-62): > 8000 nM
- IC50 (CGTH-W-1): > 8000 nM
- IC50 (ALL-PO): 5860 nM
- IC50 (MPP-89): > 8000 nM
- IC50 (NCI-H226): > 8000 nM
- IC50 (EW-16): > 8000 nM
- IC50 (PSN1): 4000 nM
- IC50 (MFH-ino): 7210 nM
- IC50 (SK-MEL-2): > 8000 nM
- IC50 (ACN): > 8000 nM
- IC50 (MZ2-MEL): > 8000 nM
- IC50 (IST-MEL1): > 8000 nM

SMILES: COc1cccc2c1C(=O)c1c(O)c3c(c(O)c1C2=O)C[C@@](O)(C(=O)CO)C[C@@H]3O[C@H]1C[C@H](N)[C@H](O)[C@H](C)O1 [DOXORUBICIN]
- IC50 (SHP77): > 1020 nM
- IC50 (A498): > 1020 nM
- IC50 (NEC8): 33.6 nM
- IC50 (OCUB-M): 15.2 nM
- IC50 (SW982): 6.05 nM
- IC50 (GAK): 257 nM
- IC50 (MZ7-mel): 113 nM
- IC50 (LC-2-ad): 5.07 nM
- IC50 (KE-37): 21 nM
- IC50 (EM-2): 325 nM
- IC50 (HEL): 175 nM
- IC50 (COLO-668): 84.5 nM
- IC50 (RPMI-8226): 213 nM
- IC50 (A704): > 1020 nM
- IC50 (NCI-H209): 48.7 nM
- IC50 (EW-3): 280 nM
- IC50 (LS-411N): 99.1 nM
- IC50 (KNS-81-FD): 160 nM
- IC50 (SW684): > 1020 nM
- IC50 (GT3TKB): 67.2 nM
- IC50 (ES1): 13.7 nM
- IC50 (NB10): 188 nM
- IC50 (TK-10): 115 nM
- IC50 (SH-4): 92.1 nM
- IC50 (ES8): 21.1 nM
- IC50 (KINGS-1): 1020 nM
- IC50 (BB30-HNC): 29.8 nM
- IC50 (SW 954): 16.9 nM
- IC50 (SF-268): 92.4 nM
- IC50 (KMOE-2): 576 nM
- IC50 (LB996-RCC): 78.5 nM
- IC50 (HCC 2998): 17.4 nM
- IC50 (D-502MG): > 1020 nM
- IC50 (BT-474): 779 nM
- IC50 (U-87 MG): 346 nM
- IC50 (KM-H2): 90.7 nM
- IC50 (no-11): 322 nM
- IC50 (HOP-62): 35.9 nM
- IC50 (CGTH-W-1): 53.5 nM
- IC50 (ALL-PO): 65 nM
- IC50 (MPP-89): 393 nM
- IC50 (NCI-H226): 417 nM
- IC50 (EW-16): 1.91 nM
- IC50 (PSN1): 11.2 nM
- IC50 (MFH-ino): 3.99 nM
- IC50 (SK-MEL-2): 230 nM
- IC50 (ACN): 31.1 nM
- IC50 (MZ2-MEL): 33.9 nM
- IC50 (IST-MEL1): 44.8 nM

SMILES: COC1=CC(c2cc3ccccc3[nH]2)=N/C1=C\c1[nH]c(C)cc1C [OBATOCLAX MESYLATE]
- IC50 (SHP77): 2010 nM
- IC50 (A498): > 16000 nM
- IC50 (NEC8): 55.9 nM
- IC50 (OCUB-M): 225 nM
- IC50 (SW982): 445 nM
- IC50 (GAK): < 62.5 nM
- IC50 (MZ7-mel): < 62.5 nM
- IC50 (LC-2-ad): 15.8 nM
- IC50 (KE-37): < 62.5 nM
- IC50 (EM-2): 3640 nM
- IC50 (HEL): 154 nM
- IC50 (COLO-668): 1330 nM
- IC50 (RPMI-8226): 316 nM
- IC50 (A704): 91.5 nM
- IC50 (NCI-H209): 3680 nM
- IC50 (EW-3): 3410 nM
- IC50 (LS-411N): 143 nM
- IC50 (KNS-81-FD): 367 nM
- IC50 (SW684): > 16000 nM
- IC50 (GT3TKB): 163 nM
- IC50 (ES1): 48.9 nM
- IC50 (NB10): 2820 nM
- IC50 (TK-10): 177 nM
- IC50 (SH-4): < 62.5 nM
- IC50 (ES8): 116 nM
- IC50 (KINGS-1): 826 nM
- IC50 (BB30-HNC): < 62.5 nM
- IC50 (SW 954): 403 nM
- IC50 (SF-268): 57.6 nM
- IC50 (KMOE-2): 90.4 nM
- IC50 (LB996-RCC): 471 nM
- IC50 (HCC 2998): < 62.5 nM
- IC50 (D-502MG): 6320 nM
- IC50 (BT-474): 175 nM
- IC50 (U-87 MG): 2290 nM
- IC50 (KM-H2): 701 nM
- IC50 (no-11): 1510 nM
- IC50 (HOP-62): 82.5 nM
- IC50 (CGTH-W-1): 399 nM
- IC50 (ALL-PO): 242 nM
- IC50 (MPP-89): 463 nM
- IC50 (NCI-H226): 66.3 nM
- IC50 (EW-16): 39.1 nM
- IC50 (PSN1): < 62.5 nM
- IC50 (MFH-ino): 247 nM
- IC50 (SK-MEL-2): 157 nM
- IC50 (ACN): < 62.5 nM
- IC50 (MZ2-MEL): 29.6 nM
- IC50 (IST-MEL1): < 62.5 nM
